Measured values taken from publication PMC8805605, “Discovery of Dimeric Arylsulfonamides as Potent ADAM8 Inhibitors” (ACS Medicinal Chemistry Letters, 2021).

Tests used:
MDA-MB-231 cells = assay: Matrigel invasion assay; assay type: cell-based; conditions: MDA-MB-231 cells pretreated with inhibitors for 24 h; control 69.07 ± 5.26%
Protocol: Figure 5 Effects of compounds 1–3 and JG26 on cancer cell invasion. MDA-MB-231 cells were pretreated with inhibitors for 24 h prior to the assay. Boxplot of invaded cells in %. Results are obtained from three independent experiments with counting of five randomly chosen viewing fields. One-way ANOVA was performed to determine statistical significance with * p < 0.05 and *** p < 0.001. […]
Thincerts of […] pore size, translucent (Greiner BioOne) were transferred into 24-well plates. Each insert was loaded with 75 µL Matrigel (BD Biosciences), 1:1 diluted with serum-free medium DMEM.
After 1 hour, thincerts were turned upside down and 25000 MDA-MB-231 cells, pretreated with vehicle (DMSO) or 20 µM inhibitors (JG26 and compounds 1-3 in DMSO) for 24 hours in DMEM/0.5 % FCS were seeded on the lower side and incubated for 3-4 hours so that cell can adhere to the membrane. To induce cell invasion, DMEM/20% FCS was applied to the upper chamber in order to […]
form a concentration gradient. After 18 hours, cells were fixed with 3.7 % paraformaldehyde and stained with 4’,6-Diamidin-2-phenylindol (DAPI) to detect cell nuclei. Quantification of cell invasion was performed using a confocal microscope by stacked imaging. Cell nuclei present in the upper and the lower chamber were counted in 5 randomly chosen viewing fields and the amount of invasion was calculated in percent as the ratio between invaded cells/non-invaded cells x 100. Experiments were repeated 3 times, counting 5 random viewing fields per well, respectively.
Protein extraction and Western Blot analysis
After 48 h, total protein extraction was performed by detaching the cells with a cell scraper. Cells were washed with PBS, resuspended in 50 μL RIPA (50 mM HEPES pH 7.4; 150 mM NaCl; 1% (v/v) NP-40; 0.5% (w/v) Natriumdeoxycholate; 0.1% (w/v) SDS; 10 mM Phenantrolin; 10 mM EDTA; PierceTM Protease Inhibitor Mini Tablets, EDTA-free, Thermo Scientific; PierceTM Phosphatase Inhibitor Mini Tablets, Thermo Scientific) and incubated for 30 min on ice. […]
2% (w/v) SDS; 10% (w/v) Glycerol; 5% (v/v) ß-Mercaptoethanol; 0.01% (w/v) Bromphenol-Blue) for 5 min. The proteins were separated by 10% SDS-PAGE and subsequently transferred on a nitrocellulose membrane (GE Healthcare). The membrane was then blocked with 5% (w/v) milk powder (MP) in TBST (50 mM Tris, pH 7.5; 150 mM NaCl; 0.1% (w/v) Tween-20) for 1 h and probed with the following primary antibodies: anti-beta Tubulin (NB600-936, Novus Biological, 1:2000), anti- […]
Cell Signaling, 1:2000) and anti-pAkt (4060, Cell Signaling, 1:2000) at 4°C overnight. After washing the 3x with TBST, the membrane was incubated with horseradish peroxidase-conjugated secondary antibodies for 1 h (abcam, 1:5000) followed by a repeated washing step. […]

[1] = biological target: T1, Recombinant human MMP-14 catalytic domain (Homo sapiens, UniProt P50281); assay: MMP-14 fluorometric inhibition assay; assay type: biochemical; conditions: mean of three independent experiments in duplicate, read-out: In vitro inhibitory activity IC50 on MMP-14
T1 construct: Recombinant human MMP-14 catalytic domain was a kind gift of Prof; Gillian Murphy; kind gift of Prof; Gillian Murphy (Department of Oncology, University of Cambridge, UK)
Protocol: The newly synthesized bivalent derivatives 1–3 were then tested in vitro on human recombinant ADAM8 in comparison with JG26 by a fluorometric assay. The inhibitory activity against a panel of MMPs and ADAM10/17 was determined as well to assess their selectivity profile. […]
VI. Biological Activity on Isolated Enzymes
MMP and ADAM10 inhibition assays.
Recombinant human MMP-14 catalytic domain was a kind gift of Prof. Gillian Murphy (Department of […]
Oncology, University of Cambridge, UK). Pro-MMP-1, pro-MMP-2, and pro-MMP-9, were purchased […]
from Calbiochem (Merck-Millipore). Pro-MMP-12 and ADAM10 were purchased from R&D Systems.
Proenzymes were activated immediately prior to use with p-aminophenylmercuric acetate (APMA 2 […]
mM for 1 h at 37°C for MMP-2 and MMP-1, 1 mM for 1 h at 37°C for MMP-9). Pro-MMP-12 was […]
auto activated by incubating in the fluorometric assay buffer (FAB: Tris 50 mM, pH = 7.5, NaCl 150 […]
mM, CaCl2 10 mM, Brij 35 0.05% and DMSO 1%) for 30 h at 37°C. For assay measurements, each […]
inhibitor stock solution (DMSO, 10 mM) was further diluted in FAB at seven different concentrations.
Activated enzyme (final concentration 0.56 nM for MMP-2, 1.3 nM for MMP-9, 1.0 nM for MMP- […]
14cd, 2.0 nM for MMP-1, 2.3 nM for MMP-12 and 20 nM for ADAM10) and inhibitor solutions were […]
incubated in the assay buffer for 3 h at 25 °C. ADAM10 was incubated for 1 h at 37°C in a different […]
buffer at pH 9 (Tris 25 mM, ZnCl2 25 µM, Brij-35 0.005 %). After the addition of 200 µM solution of […]
the fluorogenic substrate Mca-Lys-Pro-Leu-Gly-Leu-Dap(Dnp)-Ala-Arg-NH2 (Bachem) for all the […]
enzymes in DMSO (final concentration 2 µM for all enzymes, 10 µM for ADAM10), the hydrolysis […]
was monitored every 10 sec. for 15 min. recording the increase in fluorescence (λ ex = 325 nm, λ em = […]
400 nm) using a Molecular Devices SpectraMax Gemini XPS plate reader. The assays were performed […]
in triplicate in a total volume of 200 μL per well in 96-well microtitre plates (Corning, black, NBS).
Control wells lack inhibitor. The MMP inhibition activity was expressed in relative fluorescent units […]
(RFU). Percent of inhibition was calculated from control reactions without the inhibitor. IC50 was determined using the formula: v i/v o = 1/(1 + [I]/ IC50), where v i is the initial velocity of substrate cleavage in the presence of the inhibitor at concentration [I] and v o is the initial velocity in the absence of the inhibitor. Results were analyzed using SoftMax Pro software (version 5.4.3, Molecular Devices, Sunnyvale, CA) and Prism Software version 5.0 (GraphPad Software, Inc., La Jolla, CA, USA). […]

O=C(CCCNC(=O)c1cccc(C(=O)NCCCC(=O)NCCC[C@@H](NS(=O)(=O)c2ccc(OCc3cc(Br)cc(Br)c3)cc2)C(=O)NO)c1)NCCC[C@@H](NS(=O)(=O)c1ccc(OCc2cc(Br)cc(Br)c2)cc1)C(=O)NO [Compound 1]
Invaded cells (MDA-MB-231 cells): 57.25 ± 7.24% | IC50 [1]: 57 µM

O=C(NCCC[C@@H](NS(=O)(=O)c1ccc(OCc2cc(Br)cc(Br)c2)cc1)C(=O)NO)c1cccc(C(=O)NCCC[C@@H](NS(=O)(=O)c2ccc(OCc3cc(Br)cc(Br)c3)cc2)C(=O)NO)c1 [Compound 2]
Invaded cells (MDA-MB-231 cells): 50.8 ± 11.4% | IC50 [1]: 50 µM

O=C(NCCC[C@@H](NS(=O)(=O)c1ccc(OCc2cc(Br)cc(Br)c2)cc1)C(=O)NO)NCCC[C@@H](NS(=O)(=O)c1ccc(OCc2cc(Br)cc(Br)c2)cc1)C(=O)NO [Compound 3]
Invaded cells (MDA-MB-231 cells): 52.9 ± 9.14% | IC50 [1]: 234 µM

NC(=O)NCCC[C@@H](NS(=O)(=O)c1ccc(OCc2cc(Br)cc(Br)c2)cc1)C(=O)NO [JG26, reference compound]
Invaded cells (MDA-MB-231 cells): 59.87 ± 12.27% | IC50 [1]: 19.5 µM
